In paper PMC4324364 (MedChemComm, 2014):
Read-outs that look alike come from different tables or passages of the source. Blank lines part the entries; values can stand above or below the compound they belong to.

Assays:
L. major amastigotes = conditions: read-out: L. major Amast EC50, previously reported data; cited from earlier work
HepG2 cell line [1] = conditions: compound marked as previously reported data; cited from earlier work
Metabolic stability = conditions: in vitro ADME assays
HepG2 cell line [2] = test: HepG2 host cell toxicity; format: cell-based, human
T. brucei [3] = test: T. brucei cell growth inhibition; format: cell-based, Trypanosoma brucei
T. brucei [4] = conditions: cited from earlier work
[5] = cited from earlier work
[6] = cited from earlier work; remark: listed apart in the source
L. major promastigotes = conditions: read-out: L. major Promast EC50, previously reported data; cited from earlier work
[7] = test system: P. falciparum (D6 strain); conditions: read-out: P. falciparum D6 EC50, previously reported data; cited from earlier work
T. cruzi = conditions: read-out: T. cruzi EC50; previously reported data, same assay; cited from earlier work
T. brucei [8] = conditions: read-out: T. brucei EC50; previously reported data, same assay; cited from earlier work

SMILES: Fc1cccc(COc2ccc(Nc3ncnc4ccc(-c5ccccc5)cc34)cc2Cl)c1 [4b]
EC50 (L. major amastigotes): > 15 µM | HepG2 TC50 (concentration leading to 50% growth inhibition of host cells) (HepG2 cell line [1]): 4.9 µM

SMILES: Fc1cccc(COc2ccc(Nc3ncnc4ccc(-c5ccc(CN6CCOCC6)cc5)cc34)cc2Cl)c1 [4j]
HepG2 TC50 (concentration leading to 50% growth inhibition of host cells) (HepG2 cell line [1]): 12.9 µM

SMILES: Fc1cccc(COc2ccc(Nc3ncnc4ccc(-c5ccc(N6CCOCC6)cc5)cc34)cc2Cl)c1 [4k]
EC50 (L. major amastigotes): > 15 µM | HepG2 TC50 (concentration leading to 50% growth inhibition of host cells) (HepG2 cell line [1]): 9.6 µM

metabolic stability (Metabolic stability): modest
SMILES: Cc1cc(-c2cc3ncnc(Nc4ccc(OCc5cccc(F)c5)c(Cl)c4)c3s2)cnc1N1CCOCC1 [11e]

SMILES: Fc1cccc(COc2ccc(Nc3ncnc4sc(-c5ccccc5)cc34)cc2Cl)c1 [18b]
HepG2 TC50 (concentration leading to 50% growth inhibition of host cells) (HepG2 cell line [2]): 10.0 µM

SMILES: Fc1cccc(COc2ccc(Nc3ncnc4cc(C#C[C@@H]5CCCN5)sc34)cc2Cl)c1 [GW837016X]
potency against T. brucei (in words) (T. brucei [3]): potent

SMILES: CS(=O)(=O)CCNCc1ccc(-c2ccc3ncnc(Nc4ccc(OCc5cccc(F)c5)c(Cl)c4)c3c2)o1 [compound 1, lapatinib, reference compound]
cure of infected mice (T. brucei [4]; murine model of HAT): 25%

SMILES: Fc1cccc(COc2ccc(Nc3ncnc4ccc(-c5cccc(N6CCOCC6)c5)cc34)cc2Cl)c1 [compound 2]
plasma protein binding [5]: > 99% | effect on parasitemia and life extension (T. brucei [4]; murine T. brucei bloodstream infection): modest effect | central nervous system exposure [6]: lack of central nervous system exposure | oral bioavailability ([6]; mice): orally bioavailable | EC50 (L. major promastigotes): 2.97 µM | EC50 [7]: 0.23 µM | EC50 (T. cruzi): 1.8 ± 0.9 µM | EC50 (T. brucei [8]): 0.042 ± 0.01 µM | metabolic stability (Metabolic stability): modest
